From ChEMBL document CHEMBL3045062, “Potent in vitro and in vivo antitubercular activity of certain newly synthesized indophenazine 1,3,5-trisubstituted pyrazoline derivatives bearing benzofuran” (Med Chem Res, 2011) come the findings set out here.

For assay [1], the system named is Mycobacterium tuberculosis. As to the kind of experiment: Antitubercular activity against Mycobacterium tuberculosis H37Rv after 60 days. The class given is functional.
In assay [2] the test system is Vero. Briefly: Cytotoxicity against Chlorocebus aethiops (African green monkey) Vero cells after 72 hr. The class given is cell-based. The conditions noted are these: Chlorocebus sabaeus.

Converted amounts (≈) assume the structure as drawn.

In assay [1], `COc1c(N2CCNC(C)C2)c(F)cc2c(=O)c(C(=O)O)cn(C3CC3)c12` (configuration not stated) [GATIFLOXACIN] yielded an MIC50 of 0.12 µg/mL (≈ 0.32 µM) and an MIC90 of 0.5 µg/mL (≈ 1.33 µM). In assay [2], the IC50 is over 160 µM.
The matching figures for `O=C(Cn1c2ccccc2c2nc3ccccc3nc21)N1N=C(c2cc3cc(O)ccc3o2)CC1c1cccc([N+](=O)[O-])c1` (configuration not stated): 0.62 µg/mL (≈ 1.06 µM), 1.24 µg/mL (≈ 2.13 µM) and over 180 µM.
Take `CC(=O)c1ccccc1C1CC(c2cc3cc(O)ccc3o2)=NN1C(=O)Cn1c2ccccc2c2nc3ccccc3nc21` (configuration not stated): in assay [2], the IC50 was over 220 µM.
Regarding `COc1ccccc1C1CC(c2cc3cc(O)ccc3o2)=NN1C(=O)Cn1c2ccccc2c2nc3ccccc3nc21` (configuration not stated), in assay [1], the MIC50 is 11.8 µg/mL (≈ 20.8 µM) and the MIC90 amounted to 14.2 µg/mL (≈ 25 µM). In assay [2], the IC50 is over 226 µM.
For `COc1ccc(C2CC(c3cc4cc(O)ccc4o3)=NN2C(=O)Cn2c3ccccc3c3nc4ccccc4nc32)c(O)c1` (configuration not stated) the same measures were 4.56 µg/mL (≈ 7.81 µM), 8.32 µg/mL (≈ 14.3 µM) and over 206 µM.
The matching figures for `O=C(Cn1c2ccccc2c2nc3ccccc3nc21)N1N=C(c2cc3cc(O)ccc3o2)CC1c1ccccc1O` (configuration not stated): 9.81 µg/mL (≈ 17.7 µM), 10.8 µg/mL (≈ 19.6 µM) and over 227 µM.
On to `O=C(Cn1c2ccccc2c2nc3ccccc3nc21)N1N=C(c2cc3cc(O)ccc3o2)CC1c1ccc(Cl)cc1` (configuration not stated), for which, in assay [1], the MIC50 came out at 2.45 µg/mL (≈ 4.28 µM) and the MIC90 was determined as 4.2 µg/mL (≈ 7.34 µM). Besides, the IC50 in assay [2] was over 205 µM.
The matching figures for `O=C(Cn1c2ccccc2c2nc3ccccc3nc21)N1N=C(c2cc3cc(O)ccc3o2)CC1/C=C/c1ccccc1` (configuration not stated): 0.98 µg/mL (≈ 1.74 µM), 3.67 µg/mL (≈ 6.51 µM) and over 206 µM.
In assay [2], `O=C(Cn1c2ccccc2c2nc3ccccc3nc21)N1N=C(c2cc3cc(O)ccc3o2)CC1c1ccc(O)cc1` (configuration not stated) yielded an IC50 of over 245 µM.
As for `O=C(Cn1c2ccccc2c2nc3ccccc3nc21)N1N=C(c2cc3cc(O)ccc3o2)CC1c1ccccc1Cl` (configuration not stated), in assay [1], the MIC50 amounted to 1.75 µg/mL (≈ 3.06 µM) and the MIC90 worked out at 2.56 µg/mL (≈ 4.48 µM). The compound further returned an IC50 in assay [2] of over 196 µM.
For `CN(C)c1ccc(C2CC(c3cc4cc(O)ccc4o3)=NN2C(=O)Cn2c3ccccc3c3nc4ccccc4nc32)cc1` (configuration not stated) the same measures were 5.56 µg/mL (≈ 9.58 µM), 9.21 µg/mL (≈ 15.9 µM) and over 216 µM.
For `O=C(Cn1c2ccccc2c2nc3ccccc3nc21)N1N=C(c2cc3cc(O)ccc3o2)CC1c1ccco1` (configuration not stated) the same measures were 1.1 µg/mL (≈ 2.09 µM), 3.12 µg/mL (≈ 5.91 µM) and over 198 µM.
For `COc1ccc(C2CC(c3cc4cc(O)ccc4o3)=NN2C(=O)Cn2c3ccccc3c3nc4ccccc4nc32)cc1` (configuration not stated) the same measures were 12.1 µg/mL (≈ 21.3 µM), 14.3 µg/mL (≈ 25.2 µM) and over 226 µM.
`CO[C@H]1/C=C/O[C@@]2(C)Oc3c(C)c(O)c4c(O)c(c(/C=N/N5CCN(C)CC5)c(O)c4c3C2=O)NC(=O)/C(C)=C\C=C\[C@H](C)[C@H](O)[C@@H](C)[C@@H](O)[C@@H](C)[C@H](OC(C)=O)[C@@H]1C` [RIFAMPIN]: in assay [1], the MIC50 was 0.5 µg/mL (≈ 0.608 µM) and the MIC90 was determined as 2 µg/mL (≈ 2.43 µM). This compound also returned an IC50 in assay [2] of over 77.4 µM.
For `O=C(Cn1c2ccccc2c2nc3ccccc3nc21)N1N=C(c2cc3cc(O)ccc3o2)CC1c1ccccc1[N+](=O)[O-]` (configuration not stated) the same measures were 0.16 µg/mL (≈ 0.275 µM), 0.42 µg/mL (≈ 0.721 µM) and over 144 µM.
`O=C(Cn1c2ccccc2c2nc3ccccc3nc21)N1N=C(c2cc3cc(O)ccc3o2)CC1c1ccccc1` (configuration not stated) registered an IC50 in assay [2] of over 197 µM.

By MIC50 is commonly meant an inhibitory concentration at the 50% level, which refers to growth in some studies and to a panel of isolates in others. High values mean weaker potency, low ones greater potency. As a reminder, the MIC90 is an inhibitory concentration at the 90% level, which refers to growth in some studies and to a panel of isolates in others. Read a high MIC90 as lower susceptibility. As usually defined, the IC50 is the concentration that gives 50% inhibition. A high value points to weaker potency.
